# Reference: US20090062388A1, “Use of acetyl L-carnitine for the preparation of a medication for the preventive therapy for pain” (Sigma-Tau Industrie Farmaceutiche Riunite S.p.A., priority 2001, published 2009)
# Where two headings read alike, the source gives them in different places.
# What was measured:
# Male Swiss Webster mice = assay: Kainic acid-induced hyperalgesia (hot plate); format: in vivo
# Experimental: According to this test, the hyperalgesia—determined in the mice through the hot plate test—is induced by a solution of kainic acid (20 mg/kg, IP).
# mice = format: in vivo; conditions: Acetyl L-carnitine 100 mg/kg BID SC 7 days
# Experimental: The analgesia induced by the acetyl L-carnitine (100 mg/kg BID, SC for 7 days) was determined in presence of some antagonists of some neurotransmission systems deeply involved in the regulation of pain threshold, and in particular the naloxone (opioid antagonist), the CGP-35348 (GABAB antagonist) and the alpha-methyl-p-tyrosine (inhibitor of the synthesis of cathecolamines).
# In agreement with the standard procedures known by the person skilled in the art, the doses used for any antagonist were the minimum required to prevent the analgesia induced by morphine (7 mg/kg SC) (1, 100 e 200 mg/kg IP), baclofen (4 mg/kg SC) and amphetamine (1 mg/kg SC) (non-reported data) respectively.
smiles,measurement,setting,value
"CC(=O)O[C@H](CC(=O)[O-])C[N+](C)(C)C [Acetyl L-carnitine, acetyl L-carnitine]",reversal of kainic acid-induced hyperalgesia,Male Swiss Webster mice; 7-day repeated administration started 48 hours after kainic acid 20 mg/kg IP (FIG. 6),capable to revert the hyperalgesia
same,reversal of kainic acid-induced hyperalgesia,Male Swiss Webster mice; single administration (FIG. 6bis),no anti-hyperalgesic effect
same,Hot plate Licking latency,"mice; pre-treat. Alpha-M-p-T 200 mg/kg, after treatment 15 min",22.5 ± 2.0 s
same,Hot plate Licking latency,"mice; pre-treat. Alpha-M-p-T 200 mg/kg, after treatment 30 min",21.5 ± 1.7 s
same,Hot plate Licking latency,"mice; pre-treat. Alpha-M-p-T 200 mg/kg, after treatment 45 min",21.6 ± 1.5^ sec
same,Hot plate Licking latency,"mice; pre-treat. Alpha-M-p-T 200 mg/kg, before treatment",22.0 ± 1.3 s
same,Hot plate Licking latency,"mice; pre-treat. Atropine 5 mg/kg, after treatment 15 min",11.4 ± 1.7° sec
same,Hot plate Licking latency,"mice; pre-treat. Atropine 5 mg/kg, after treatment 30 min",12.6 ± 1.9° sec
same,Hot plate Licking latency,"mice; pre-treat. Atropine 5 mg/kg, after treatment 45 min",12.8 ± 1.3° sec
same,Hot plate Licking latency,"mice; pre-treat. Atropine 5 mg/kg, before treatment",21.2 ± 1.0^ sec
same,Hot plate Licking latency,"mice; pre-treat. CGP 35348 100 mg/kg, after treatment 15 min",21.1 ± 1.2^ sec
same,Hot plate Licking latency,"mice; pre-treat. CGP 35348 100 mg/kg, after treatment 30 min",21.0 ± 2.1^ sec
same,Hot plate Licking latency,"mice; pre-treat. CGP 35348 100 mg/kg, after treatment 45 min",20.3 ± 1.9^ sec
same,Hot plate Licking latency,"mice; pre-treat. CGP 35348 100 mg/kg, before treatment",22.1 ± 0.7 s
same,Hot plate Licking latency,"mice; pre-treat. HC-3 1 μg ICV, after treatment 15 min",14.6 ± 1.3° sec
same,Hot plate Licking latency,"mice; pre-treat. HC-3 1 μg ICV, after treatment 30 min",14.0 ± 1.8° sec
same,Hot plate Licking latency,"mice; pre-treat. HC-3 1 μg ICV, after treatment 45 min",15.5 ± 1.9° sec
same,Hot plate Licking latency,"mice; pre-treat. HC-3 1 μg ICV, before treatment",22.0 ± 1.1^ sec
same,Hot plate Licking latency,"mice; pre-treat. Naloxone 1 mg/kg, after treatment 15 min",22.3 ± 1.9 s
same,Hot plate Licking latency,"mice; pre-treat. Naloxone 1 mg/kg, after treatment 30 min",22.1 ± 2.0 s
same,Hot plate Licking latency,"mice; pre-treat. Naloxone 1 mg/kg, after treatment 45 min",20.6 ± 1.2^ sec
same,Hot plate Licking latency,"mice; pre-treat. Naloxone 1 mg/kg, before treatment",22.6 ± 0.6 s
same,Hot plate Licking latency,"mice; pre-treat. Pirenzepine 0.1 μg ICV, after treatment 15 min",16.5 ± 1.8° sec
same,Hot plate Licking latency,"mice; pre-treat. Pirenzepine 0.1 μg ICV, after treatment 30 min",14.3 ± 2.0° sec
same,Hot plate Licking latency,"mice; pre-treat. Pirenzepine 0.1 μg ICV, after treatment 45 min",17.1 ± 1.6° sec
same,Hot plate Licking latency,"mice; pre-treat. Pirenzepine 0.1 μg ICV, before treatment",21.6 ± 1.3^ sec
same,Hot plate Licking latency,"mice; pre-treat. S-(−)-ET-126 0.1 μg ICV, after treatment 15 min",15.8 ± 2.2° sec
same,Hot plate Licking latency,"mice; pre-treat. S-(−)-ET-126 0.1 μg ICV, after treatment 30 min",16.9 ± 2.3° sec
same,Hot plate Licking latency,"mice; pre-treat. S-(−)-ET-126 0.1 μg ICV, after treatment 45 min",15.8 ± 1.8° sec
same,Hot plate Licking latency,"mice; pre-treat. S-(−)-ET-126 0.1 μg ICV, before treatment",22.9 ± 1.3^ sec
same,Hot plate Licking latency,"mice; pre-treat. physiological solution 10 ml/kg, after treatment 15 min",22.6 ± 1.3 s
same,Hot plate Licking latency,"mice; pre-treat. physiological solution 10 ml/kg, after treatment 30 min",22.5 ± 1.3 s
same,Hot plate Licking latency,"mice; pre-treat. physiological solution 10 ml/kg, after treatment 45 min",22.9 ± 1.6^ sec
same,Hot plate Licking latency,"mice; pre-treat. physiological solution 10 ml/kg, before treatment",21.8 ± 1.1 s
